Literature values in patent publication EP3744320A1, “PHAR[…] C[…]” (Alfred E. Tiefenbacher (GmbH & Co. KG), priority 2019, dated 2020).

For CN1CCc2nc(C(=O)N[C@@H]3C[C@@H](C(=O)N(C)C)CC[C@@H]3NC(=O)C(=O)Nc3ccc(Cl)cn3)sc2C1 [edoxaban, N'-(5-chloropyridin-2-yl)-N-[(1S,2R,4S)-4-(dimethylcarbamoyl)-2-[(5-methyl-6,7-dihydro-4H-[1,3]thiazolo[5,4-c]pyridine-2-carbonyl)amino]cyclohexyl]oxamide], the “time of peak plasma concentrations” value (administered in vivo) is listed as 1 to 2 h, the absolute bioavailability (in vivo) is listed as “approximately 62%” and the “absorbed in the upper gastrointestinal tract” value (in vivo) is listed as “approximately 85%”.
